# Reference: patent US20040053323A1, “Method of screening inducible nitric oxide synthase activation inhibitor” (priority 2000, published 2004)
# T1: iNOS (Mus musculus, UniProt P29477)
# T1 sequence (P29477 1-1144): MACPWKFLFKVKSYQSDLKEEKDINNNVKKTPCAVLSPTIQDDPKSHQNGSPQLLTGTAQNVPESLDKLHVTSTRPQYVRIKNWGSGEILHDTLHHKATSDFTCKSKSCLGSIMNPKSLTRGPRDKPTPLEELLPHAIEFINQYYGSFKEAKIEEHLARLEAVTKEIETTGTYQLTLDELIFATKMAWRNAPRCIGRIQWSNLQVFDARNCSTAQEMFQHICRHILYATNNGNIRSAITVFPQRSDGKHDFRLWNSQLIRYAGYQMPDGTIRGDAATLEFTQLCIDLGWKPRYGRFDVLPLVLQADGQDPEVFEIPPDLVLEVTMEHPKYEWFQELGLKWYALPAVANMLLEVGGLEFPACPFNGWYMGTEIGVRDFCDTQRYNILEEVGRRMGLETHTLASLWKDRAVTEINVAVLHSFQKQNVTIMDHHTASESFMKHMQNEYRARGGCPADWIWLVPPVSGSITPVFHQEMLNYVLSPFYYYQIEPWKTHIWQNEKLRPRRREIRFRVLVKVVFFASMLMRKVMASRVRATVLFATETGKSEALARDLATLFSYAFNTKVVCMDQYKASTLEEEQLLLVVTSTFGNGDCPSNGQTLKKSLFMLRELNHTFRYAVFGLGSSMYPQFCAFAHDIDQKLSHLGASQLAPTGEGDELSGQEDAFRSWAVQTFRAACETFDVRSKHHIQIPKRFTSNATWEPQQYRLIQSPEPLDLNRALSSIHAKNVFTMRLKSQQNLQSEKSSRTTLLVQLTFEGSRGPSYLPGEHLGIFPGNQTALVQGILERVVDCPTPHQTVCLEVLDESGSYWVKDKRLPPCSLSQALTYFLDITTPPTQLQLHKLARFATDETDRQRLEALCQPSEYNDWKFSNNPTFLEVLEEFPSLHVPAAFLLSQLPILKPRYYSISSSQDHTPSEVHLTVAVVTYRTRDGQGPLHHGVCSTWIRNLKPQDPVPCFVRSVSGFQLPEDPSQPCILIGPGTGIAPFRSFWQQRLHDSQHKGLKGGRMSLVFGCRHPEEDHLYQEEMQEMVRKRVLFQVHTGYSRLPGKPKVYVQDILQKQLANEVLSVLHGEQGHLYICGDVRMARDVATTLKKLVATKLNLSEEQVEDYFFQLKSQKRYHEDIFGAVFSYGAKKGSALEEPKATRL
# T2: ^14C-A-bound protein in RAW cells (Mus musculus, UniProt P29477)
# T2 construct: endogenous in cells; host or cells: RAW264.7 mouse macrophage cells stimulated with LPS and IFN-γ
# T2 sequence (P29477 1-1144): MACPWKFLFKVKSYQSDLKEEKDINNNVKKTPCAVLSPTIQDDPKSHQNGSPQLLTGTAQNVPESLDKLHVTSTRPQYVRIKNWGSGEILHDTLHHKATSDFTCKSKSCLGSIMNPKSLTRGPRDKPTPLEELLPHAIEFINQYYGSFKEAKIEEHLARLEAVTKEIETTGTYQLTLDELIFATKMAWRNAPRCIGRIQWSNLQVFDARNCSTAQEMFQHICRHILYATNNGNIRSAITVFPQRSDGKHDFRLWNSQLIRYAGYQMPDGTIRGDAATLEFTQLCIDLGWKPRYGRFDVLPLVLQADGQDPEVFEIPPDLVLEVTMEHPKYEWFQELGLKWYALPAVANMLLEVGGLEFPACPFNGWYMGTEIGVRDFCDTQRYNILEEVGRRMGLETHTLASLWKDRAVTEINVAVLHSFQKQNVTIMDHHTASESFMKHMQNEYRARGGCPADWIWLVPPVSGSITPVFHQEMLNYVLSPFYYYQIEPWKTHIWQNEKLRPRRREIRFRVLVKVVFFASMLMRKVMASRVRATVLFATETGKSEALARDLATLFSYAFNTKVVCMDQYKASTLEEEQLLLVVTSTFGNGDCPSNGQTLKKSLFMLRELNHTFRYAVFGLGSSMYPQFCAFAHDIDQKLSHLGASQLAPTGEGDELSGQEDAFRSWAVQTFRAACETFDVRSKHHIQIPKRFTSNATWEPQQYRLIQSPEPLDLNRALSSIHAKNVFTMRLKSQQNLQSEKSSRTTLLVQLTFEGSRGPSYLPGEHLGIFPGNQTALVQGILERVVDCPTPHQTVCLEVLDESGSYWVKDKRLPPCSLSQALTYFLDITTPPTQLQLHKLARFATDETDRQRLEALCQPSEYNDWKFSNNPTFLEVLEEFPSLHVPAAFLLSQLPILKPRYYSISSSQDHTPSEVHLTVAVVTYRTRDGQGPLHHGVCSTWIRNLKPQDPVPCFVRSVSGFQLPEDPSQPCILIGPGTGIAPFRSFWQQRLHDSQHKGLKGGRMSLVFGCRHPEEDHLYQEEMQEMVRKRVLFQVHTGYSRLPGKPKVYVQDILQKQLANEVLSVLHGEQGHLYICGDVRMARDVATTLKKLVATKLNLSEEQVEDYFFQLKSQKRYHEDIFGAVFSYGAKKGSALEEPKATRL
# Columns and labels:
# [1] = biological target: T1, iNOS; conditions: cited from earlier work
# [2] = biological target: T2, ^14C-A-bound protein in RAW cells; test: Dose dependency of ^14C-A binding activity in LPS/IFN-stimulated RAW264.7 cell extract; format: cell-based; conditions: RAW264.7 cells, LPS/IFN stimulation
# Description: (§1) Mouse macrophage derived RAW264.7 cells (Stuehr D. J. Proc. Natl. Acad. Sci. USA. 1991, 88, 7773; Cancer Res. 1987, 47, 5590) were cultured in Dulbecco's Modified Eagle Medium containing 10% FCS (fetal calf serum) , until there were 2 to 4×10^7 cells in each F75 culture flask (Falcon). Then, lipopolysaccharide (LPS) and interferon-γ (IFN) were added to a final concentration of 4 μg/ml and 16 units/ml, respectively, and cultured overnight in a CO2 incubator (37° C.). 0.1% Trypsin (5 mL) was added to the flask in which the cells were cultured, the cells were detached by an incubation at 37° C. for 5 minutes, and then collected by centrifugation. To the collected cells (2,000 rpm, 10 minutes), 600 μL of lysis buffer was added, and freeze thawing was repeated three times to disrupt the cells. The supernatant obtained by centrifugation (15,000 rpm, 15 minutes) was collected and this was the cell extract. […]
# (§2) Then, 200 μL of that extract was applied to Superdex 200 HR10/30 (flow rate 0.5 mL/min: Amersham Pharmacia Biotech, Sweden) pre-equilibrated with 25 mM Tris-HCl (pH 8.0) containing 150 mM NaCl to perform gel filtration chromatography. Each of the fractions collected every minute were mixed with 7 mL of Aquasol-2 (Packard, USA), and was then measured with a liquid scintillation counter (FIG. 1). ^14C-A used in this experiment was synthesized as follows.
# [3] = biological target: T3, Δ122-iNOSox (Homo sapiens, UniProt P35228); test: Binding assay of ^3H-compound A with Δ122-iNOSox (gel filtration mini column, scintillation counting); conditions: Δ122-iNOSox protein
# T3 construct: genes of the oxygenase domain region (amino acids 1 to 526) by PCR; His tag; made in house; host or cells: E. coli, protease-deficient DE3 strain; vector pTrcHis2 (Invitrogen)
# T3 sequence (P35228 123-526 limits assumed, stated change not applied): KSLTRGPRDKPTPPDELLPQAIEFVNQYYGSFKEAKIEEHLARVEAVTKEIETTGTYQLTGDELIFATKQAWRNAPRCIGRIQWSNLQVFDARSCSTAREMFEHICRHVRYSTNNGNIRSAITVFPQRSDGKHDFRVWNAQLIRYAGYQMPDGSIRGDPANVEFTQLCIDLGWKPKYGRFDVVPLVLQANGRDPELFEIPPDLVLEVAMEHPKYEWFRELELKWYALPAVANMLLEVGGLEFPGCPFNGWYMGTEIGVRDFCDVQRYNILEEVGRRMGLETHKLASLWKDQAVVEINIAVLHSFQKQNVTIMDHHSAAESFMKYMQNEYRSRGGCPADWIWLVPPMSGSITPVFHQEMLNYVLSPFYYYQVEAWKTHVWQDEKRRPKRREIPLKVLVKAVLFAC
# Description: A binding assay system for ^3H-compound A (25Ci/mmol) was constructed using Δ122-iNOSox obtained in Example 9. In principle, it is an assay system in which the binding strength of a compound towards iNOS can be analyzed by measuring the amount of ^3H-compound A replaced by various test drugs added to bound Δ122-iNOSox protein and ^3H-compound A (10 nM) . That is, to 100 μL of a Δ122-iNOSox solution that has been diluted to a final concentration of 1 μg/mL with 25 mM Tris-HCl (pH 7.5) containing 150 mM NaCl and 1% CHAPS, 1 μL of 1 μM ^3H-compound A was added and was incubated for 3 hours at 4° C., then the entire amount was applied to a gel filtration mini column for desalting (NICK column; Pharmacia) that was pre-equilibrated with 25 mM Tris-HCl (pH 7.5) containing 150 mM NaCl. Next, 400 μL of the same buffer was added, the eluted solution was mixed with 7 mL of aquasol, and this was measured with a liquid scintillation counter.
# [4] = biological target: T1, iNOS; test: iNOS dimer/monomer detection by gel filtration and anti-iNOS dot blotting of LPS/IFN-stimulated RAW264.7 cell extract; format: cell-based; design: endogenous in cells; host or cells: RAW264.7 mouse macrophage cells stimulated with LPS and IFN-γ; conditions: RAW264.7 cells, LPS/IFN stimulation, compound A added
# Description: as §1, with “centrifugation.” for “centrifugation. To the collected cells (2,000 rpm, 10 minutes), 600 μL of lysis buffer was added, and freeze thawing was repeated three times to disrupt the cells. The supernatant obtained by centrifugation (15,000 rpm, 15 minutes) was collected and this was the cell extract.”
# as §2
# Gel filtration fractions containing compound A binding activity, which were obtained by a method similar to that of Example 2 were analyzed by dot blotting. […]
# [5] = biological target: the molecule itself; test: gel filtration (Superdex 200) of RAW264.7 cell extract with dot blot detection; homodimer peak
molecule,measurement,setting,value
Clc1ccccc1C(c1ccccc1)(c1ccccc1)n1ccnc1 [clotrimazole],effect on iNOS enzyme activity and dimerization,[1],interfered not only with enzyme activity of iNOS but also with its dimerization
CN(Cc1cccnc1)C(=O)[C@H](Cc1ccccc1)NC(=O)[C@H](Cc1ccccn1)NC(=O)c1cc2ccccc2o1 [compound A],radioactivity of cell extract versus added ^14C-A concentration (saturation),[2],saturation of radioactivity was confirmed between 10^−6 M and 10^−5 M
same,Hill coefficient,[3]; Hill plot analysis,0.971
same,Kd,"[3]; ^3H-compound A, saturation curve and Scatchard plot",0.0135 µM
same,iNOS dimerization (dimer peak in dot blotting of gel filtration fractions),[4],the peak corresponding to the dimer had clearly disappeared
Clc1ccc(COC(Cn2ccnc2)c2ccc(Cl)cc2Cl)c(Cl)c1 (stereo not shown) [miconazole],effect on iNOS enzyme activity and dimerization,[1],interfered not only with enzyme activity of iNOS but also with its dimerization
"iNOS derived from mice (inducible nitrogen oxide synthase from LPS/IFN-stimulated RAW264.7 cells) (enzyme, mouse, UniProt P29477 1-1144, looked up, Endogenous protein in cell extract and gel filtration fractions; It ran as monomer and dimer peaks without compound A and as monomer only with compound A; also called iNOS protein) MACPWKFLFKVKSYQSDLKEEKDINNNVKKTPCAVLSPTIQDDPKSHQNGSPQLLTGTAQNVPESLDKLHVTSTRPQYVRIKNWGSGEILHDTLHHKATSDFTCKSKSCLGSIMNPKSLTRGPRDKPTPLEELLPHAIEFINQYYGSFKEAKIEEHLARLEAVTKEIETTGTYQLTLDELIFATKMAWRNAPRCIGRIQWSNLQVFDARNCSTAQEMFQHICRHILYATNNGNIRSAITVFPQRSDGKHDFRLWNSQLIRYAGYQMPDGTIRGDAATLEFTQLCIDLGWKPRYGRFDVLPLVLQADGQDPEVFEIPPDLVLEVTMEHPKYEWFQELGLKWYALPAVANMLLEVGGLEFPACPFNGWYMGTEIGVRDFCDTQRYNILEEVGRRMGLETHTLASLWKDRAVTEINVAVLHSFQKQNVTIMDHHTASESFMKHMQNEYRARGGCPADWIWLVPPVSGSITPVFHQEMLNYVLSPFYYYQIEPWKTHIWQNEKLRPRRREIRFRVLVKVVFFASMLMRKVMASRVRATVLFATETGKSEALARDLATLFSYAFNTKVVCMDQYKASTLEEEQLLLVVTSTFGNGDCPSNGQTLKKSLFMLRELNHTFRYAVFGLGSSMYPQFCAFAHDIDQKLSHLGASQLAPTGEGDELSGQEDAFRSWAVQTFRAACETFDVRSKHHIQIPKRFTSNATWEPQQYRLIQSPEPLDLNRALSSIHAKNVFTMRLKSQQNLQSEKSSRTTLLVQLTFEGSRGPSYLPGEHLGIFPGNQTALVQGILERVVDCPTPHQTVCLEVLDESGSYWVKDKRLPPCSLSQALTYFLDITTPPTQLQLHKLARFATDETDRQRLEALCQPSEYNDWKFSNNPTFLEVLEEFPSLHVPAAFLLSQLPILKPRYYSISSSQDHTPSEVHLTVAVVTYRTRDGQGPLHHGVCSTWIRNLKPQDPVPCFVRSVSGFQLPEDPSQPCILIGPGTGIAPFRSFWQQRLHDSQHKGLKGGRMSLVFGCRHPEEDHLYQEEMQEMVRKRVLFQVHTGYSRLPGKPKVYVQDILQKQLANEVLSVLHGEQGHLYICGDVRMARDVATTLKKLVATKLNLSEEQVEDYFFQLKSQKRYHEDIFGAVFSYGAKKGSALEEPKATRL",binding result,[5],binds
